From ChEMBL document CHEMBL1201862, “PubChem BioAssay data set” (2004)
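Cells were grown in 96-well plates and exposed to each compound for 48 hours at five concentrations; endpoints were interpolated linearly between bracketing concentrations, or set to the highest concentration if not reached. The concentration for 50% growth inhibition is given as GI50.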 Activity calls are given as the source filed them. Rule as the data show it: active = GI50 up to about 1.1 µM and inactive = higher.

Legend:
Experiment in all cases: inhibition of tumour cell growth, NCI panel, 48 h
BT-549 = tested on: BT-549
MDA-MB-231 = tested on: MDA-MB-231
OVCAR-8 = tested on: OVCAR-8
SK-MEL-5 = tested on: SK-MEL-5
HOP-62 = tested on: HOP-62
A498 = tested on: A498
OVCAR-5 = tested on: OVCAR-5
NCI-H460 = tested on: NCI-H460
HL-60 = tested on: HL-60
KM12 = tested on: KM12
NCI-H23 = tested on: NCI-H23
CCRF-CEM = tested on: CCRF-CEM
SW-620 = tested on: SW-620
MDA-N = tested on: MDA-N
HT-29 = tested on: HT-29
NCI-H226 = tested on: NCI-H226
UO-31 = tested on: UO-31
MDA-MB-435 = tested on: MDA-MB-435
RXF 393 = tested on: RXF 393
RPMI-8226 = tested on: RPMI-8226

| SMILES | GI50 (BT-549) | GI50 (MDA-MB-231) | GI50 (OVCAR-8) | GI50 (SK-MEL-5) | GI50 (HOP-62) | GI50 (A498) | GI50 (OVCAR-5) | GI50 (NCI-H460) | GI50 (HL-60) | GI50 (KM12) | GI50 (NCI-H23) | GI50 (CCRF-CEM) | GI50 (SW-620) | GI50 (MDA-N) | GI50 (HT-29) | GI50 (NCI-H226) | GI50 (UO-31) | GI50 (MDA-MB-435) | GI50 (RXF 393) | GI50 (RPMI-8226) |
| --- | --- | --- | --- | --- | --- | --- | --- | --- | --- | --- | --- | --- | --- | --- | --- | --- | --- | --- | --- | --- |
| COc1cccc(CCCNC(=O)Cc2cc(OC)c(OC)cc2CO)c1 | > 100 µM (inactive) | > 100 µM (inactive) | > 100 µM (inactive) | 83.2 µM (inactive) | > 100 µM (inactive) | > 100 µM (inactive) | > 100 µM (inactive) | > 100 µM (inactive) | > 100 µM (inactive) | > 100 µM (inactive) | > 100 µM (inactive) | > 100 µM (inactive) | > 100 µM (inactive) | > 100 µM (inactive) | > 100 µM (inactive) | > 100 µM (inactive) | > 100 µM (inactive) | > 100 µM (inactive) |  |  |
| CCOC(=O)CCC(NC(=O)Cc1ccc(Nc2nc3cc(F)c(F)cc3nc2C(=O)OCC)cc1)C(=O)OCC (stereo not drawn) | 51.2 µM (inactive) | 41.8 µM (inactive) | 94.2 µM (inactive) | > 100 µM (inactive) | > 100 µM (inactive) | > 100 µM (inactive) | > 100 µM (inactive) | > 100 µM (inactive) | 21.5 µM (inactive) | > 100 µM (inactive) | > 100 µM (inactive) | 20.8 µM (inactive) | 73.6 µM (inactive) | > 100 µM (inactive) | > 100 µM (inactive) | > 100 µM (inactive) | > 100 µM (inactive) | > 100 µM (inactive) |  |  |
| CCOC(=O)c1ccc(C(=O)OCC)n1-c1cc2cc(c1)CSCc1cc(cc(-n3c(C(=O)OCC)ccc3C(=O)OCC)c1)CSC2 | > 10 µM (inactive) | > 10 µM (inactive) | > 10 µM (inactive) | > 10 µM (inactive) | > 10 µM (inactive) |  | > 10 µM (inactive) | > 10 µM (inactive) | > 10 µM (inactive) | > 10 µM (inactive) | > 10 µM (inactive) | > 10 µM (inactive) | > 10 µM (inactive) | > 10 µM (inactive) | > 10 µM (inactive) | > 10 µM (inactive) | > 10 µM (inactive) | > 10 µM (inactive) | > 10 µM (inactive) | > 10 µM (inactive) |
| COC(=O)/C=C\COCC1C2CCC(=O)C21 (stereo not drawn) | 11 µM (inactive) | > 25 µM (inactive) | > 25 µM (inactive) | 22.9 µM (inactive) | > 25 µM (inactive) |  | > 25 µM (inactive) | 6.79 µM (inactive) |  | 17.9 µM (inactive) | > 25 µM (inactive) | 5.66 µM (inactive) | 7.93 µM (inactive) | > 25 µM (inactive) | 6.05 µM (inactive) | 18.5 µM (inactive) | 11.6 µM (inactive) | > 25 µM (inactive) | 9.62 µM (inactive) | 11 µM (inactive) |
| COCC1OC(N2C(=O)NC(=O)[C@@H]3C=C4CCCCC4=C[C@@H]32)C(OC)C1OC (stereo partly drawn) | > 100 µM (inactive) | > 100 µM (inactive) | > 100 µM (inactive) |  | > 100 µM (inactive) | > 100 µM (inactive) | > 100 µM (inactive) | > 100 µM (inactive) | 51.6 µM (inactive) | > 100 µM (inactive) |  |  | > 100 µM (inactive) | > 100 µM (inactive) | > 100 µM (inactive) | > 100 µM (inactive) | 98.9 µM (inactive) | > 100 µM (inactive) |  | > 100 µM (inactive) |
| C[C@]12CC[C@H](O)C=C1CC[C@@H]1[C@@H]2CC[C@]2(C)C(=N/O)/C(=C/c3ccncc3)C[C@@H]12 | 20 µM (inactive) | 11.1 µM (inactive) | 16 µM (inactive) | 5.01 µM (inactive) | 13.2 µM (inactive) |  | 19.2 µM (inactive) | 6.1 µM (inactive) | < 0.01 µM (active) | 8 µM (inactive) | 16.1 µM (inactive) | 7.96 µM (inactive) | 23 µM (inactive) | 9.51 µM (inactive) | 4.04 µM (inactive) | 10.2 µM (inactive) | 3.68 µM (inactive) | 11.1 µM (inactive) | 5.87 µM (inactive) | 3.78 µM (inactive) |
| C/C(=N/OC(=O)c1cccc2c(=O)c3ccccc3[nH]c12)[C@H]1CC[C@H]2[C@@H]3CCC4=C/C(=N/OC(=O)c5cccc6c(=O)c7ccccc7[nH]c56)CC[C@]4(C)[C@H]3CC[C@]12C | 17.7 µM (inactive) | 14.3 µM (inactive) | 15.7 µM (inactive) | 13.1 µM (inactive) | 24.8 µM (inactive) |  | 17.4 µM (inactive) |  | 3.91 µM (inactive) | 15.2 µM (inactive) | 15.5 µM (inactive) | 2.4 µM (inactive) | 13.9 µM (inactive) | 14.1 µM (inactive) | 13.5 µM (inactive) | 20 µM (inactive) | 15 µM (inactive) | 15.5 µM (inactive) |  | 2.9 µM (inactive) |
| CCc1nc2c(n1CC)C(=O)c1ccccc1C2=O | 17.2 µM (inactive) | 16.9 µM (inactive) | 32.8 µM (inactive) | > 10 µM (inactive) | 42.5 µM (inactive) |  | 47.2 µM (inactive) | 39.1 µM (inactive) | 32.7 µM (inactive) | 45.3 µM (inactive) | 46.8 µM (inactive) | 45.7 µM (inactive) | 26.7 µM (inactive) | > 10 µM (inactive) | 24.9 µM (inactive) | 28.6 µM (inactive) |  | 18.3 µM (inactive) | 19.8 µM (inactive) | > 100 µM (inactive) |
| O=[N+]([O-])C(/C(Cl)=C(/Cl)N1CCOCC1)=C1\NCCO1 | > 100 µM (inactive) | > 100 µM (inactive) | > 100 µM (inactive) |  | > 100 µM (inactive) | > 100 µM (inactive) | > 100 µM (inactive) | > 100 µM (inactive) |  | > 100 µM (inactive) | > 100 µM (inactive) | > 100 µM (inactive) | > 100 µM (inactive) | > 100 µM (inactive) | > 100 µM (inactive) | > 100 µM (inactive) | > 100 µM (inactive) | > 100 µM (inactive) |  | > 100 µM (inactive) |
| O=C(O[C@@H](/C=C/c1ccccc1)P1(=O)N(Cc2ccccc2)[C@@H]2CCCC[C@H]2N1Cc1ccccc1)c1ccccc1 | 4.91 µM (inactive) | 2.96 µM (inactive) | 3.63 µM (inactive) | 1.99 µM (inactive) | 6.79 µM (inactive) | 5.62 µM (inactive) | 4.86 µM (inactive) | 3.53 µM (inactive) | 2.94 µM (inactive) | 2.83 µM (inactive) | 2.64 µM (inactive) | 2.31 µM (inactive) | 3.66 µM (inactive) | 3.33 µM (inactive) | 3.44 µM (inactive) | 2.58 µM (inactive) | 3.4 µM (inactive) | 3.12 µM (inactive) |  | 2 µM (inactive) |
| CN(C)CC1CCC/C(=C\c2ccc(OC(=O)c3ccc(Cl)cc3)cc2)C1=O (stereo not drawn) | 2.81 µM (inactive) | 2.45 µM (inactive) | 1.58 µM (inactive) | 3.69 µM (inactive) | 3.99 µM (inactive) | 7.26 µM (inactive) | 2.25 µM (inactive) | 5.36 µM (inactive) | 1.32 µM (inactive) | 1.57 µM (inactive) | 1.69 µM (inactive) | 0.33 µM (active) | 1.1 µM (active) | 2.38 µM (inactive) | 1.95 µM (inactive) | 3.06 µM (inactive) | 1.5 µM (inactive) | 1.95 µM (inactive) |  | 0.465 µM (active) |
